Data as given in US8487001B2, “Medium-chain length fatty acids, glycerides and analogues as neutrophil survival and activation factors” (ProMetic BioSciences Inc., priority 2001, dated 2013).

Experiments:
B16F10 melanoma = test: Antitumor activity in B16F10 melanoma model; assay type: in vivo, C57BL/6 mice; details: FIG. 10; MCT 25 μMole/mouse i.v. day 7, 9, 14, 16; doxorubicin 10 mg/kg day 10 and 17 (sub-therapeutic); day 22
Procedure: Female 6-8-week old C57BL/6 mice were injected intravenously on day 0 with 1×10^5 B16F10 melanoma cells from ATCC (source of cell culture, Dr. I. J. Fidler). […] Mice were sacrificed on day 22. Body weight and tumor volume were recorded.

neutrophils (PMN) = test: Doxorubicin-induced neutrophil apoptosis, 4 hr incubation with or without MCT; assay type: cell-based, human
Procedure: (§1) PMN were isolated as described in example 10. Cells (2×10^6/ml) were incubated for 4 hr, at 37° C. in 5% CO2 and 95% humidity in the presence of various concentrations of a chemotherapeutic agent, doxorubicin. Apoptotic cells were evaluated as described in example 10. Data are expressed in percent of apoptotic cells.
as §1, with “doxorubicin with or without MCT (2.5% and 5.0%).” for “a chemotherapeutic agent, doxorubicin.”
Results are expressed in percent of apoptotic cells after 4 hr of incubation in the presence or the absence of doxorubicin with or without MCT. […] However, in the presence of MCT, at a concentration of 2.5% and 5% (v/v), the apoptotic effects of doxorubicin are inhibited. Thus, MCT exerts an anti-apoptotic action on PMN. Apoptosis was also studied using the annexin V-FITC/PI (propidium iodide) to method according to the manufacturer's Biosources recommendations (Apotarget Annexin-VFITC Apoptosis Kit #PHN 1018). Annexin V binds to phosphatidylserine which is transferred from the internal to external membrane in early to late phase apoptosis. Briefly, neutrophils are incubated in the presence or absence of varying concentrations of doxorubicin and MCT. After 24 hr, neutrophils are washed with PBS and stained with […] of Annexin V-FITC and 10 μl of PI (Sigma, 1 mg/ml) for 20 minutes. After incubation, stained cells were fixed in paraformaldehyde (1%) and analyzed for apoptosis using an XL Flow Cytometer (Coulter). Data were then expressed as the percent of apoptotic cells. FIG. 4A represents a time-course response of MCT on doxorubicin-treated neutrophils.

[1] = Doxorubicin-induced neutrophil apoptosis, comparison to GM-CSF (% PMN viability); assay type: cell-based, human; details: human
Source text: Table 2 represents the effect of GM-CSF, MCT and tricaprylin on doxorubicin-induced human neutrophil apoptosis.

SMILES: COc1cccc2c1C(=O)c1c(O)c3c(c(O)c1C2=O)C[C@@](O)(C(=O)CO)C[C@@H]3O[C@H]1C[C@H](N)[C@H](O)[C@H](C)O1 [Doxorubicin, doxorubicin]
- reduction of the tumor volume (B16F10 melanoma): around 25%
- % Apoptosis of neutrophils (PMN) (neutrophils (PMN); Experiment 1, doxorubicin 10^-4 M alone (Control, no MCT)): 27.5%
- % Apoptosis of neutrophils (PMN) (neutrophils (PMN); Experiment 1, doxorubicin 10^-5 M alone (Control, no MCT)): 23.8%
- % Apoptosis of neutrophils (PMN) (neutrophils (PMN); Experiment 1, doxorubicin 10^-6 M alone (Control, no MCT)): 23.2%
- % Apoptosis of neutrophils (PMN) (neutrophils (PMN); Experiment 1, doxorubicin 10^-8 M alone (Control, no MCT)): 18.7%
- % Apoptosis of neutrophils (PMN) (neutrophils (PMN); Experiment 1, doxorubicin 10^-10 M alone (Control, no MCT)): 9.3%
- % Apoptosis of neutrophils (PMN) (neutrophils (PMN); Experiment 2, doxorubicin 10^-4 M alone (Control, no MCT)): 53.2%
- % Apoptosis of neutrophils (PMN) (neutrophils (PMN); Experiment 2, doxorubicin 10^-5 M alone (Control, no MCT)): 66.2%
- % Apoptosis of neutrophils (PMN) (neutrophils (PMN); Experiment 2, doxorubicin 10^-6 M alone (Control, no MCT)): 55.0%
- % Apoptosis of neutrophils (PMN) (neutrophils (PMN); Experiment 2, doxorubicin 10^-8 M alone (Control, no MCT)): 59.2%
- % Apoptosis of neutrophils (PMN) (neutrophils (PMN); Experiment 2, doxorubicin 10^-10 M alone (Control, no MCT)): 60.6%
- effect on PMN apoptosis (neutrophils (PMN); various concentrations of doxorubicin, FIGS. 3A and 3B): induces PMN apoptosis
- viability [1]: 6.82 ± 0.5%
